Patent US9255093B2, “Polycyclic HERG activators” (NOVARTIS AG, priority 2014, dated 2016)
Marks after values point to notes of the source that are not given here.

Target: hERG (human ether-a-go-go-related gene) potassium channel (Homo sapiens, UniProt Q12809)
Test: QPatch automated patch-clamp hERG activator 4-concentration EC50 assay
Conditions: increase of hERG tail current amplitude at 7 second (TL7); 3.3 uM (footnote *); hERG stably expressed in CHO cells
Description: A patch-clamp assay on the QPatch© automated patch clamp system was employed to assesses whether compounds functionally enhance the cardiac delayed rectifier hERG (human ether-a-go-go-related gene) potassium channel. The assay measures electric the current passing through hERG channels that are heterologously expressed in a stable Chinese hamster ovary (CHO) cell line. Channels are opened by a hERG-specific voltage protocol and the compound effect is directly characterized by the activation of the hERG current. EC50 values are obtained from fitting 4-concentration dose response curves (1.1, 3.3, 10 & 30 uM) in triplicates at 4 different sections of the voltage protocol (steady state current amplitude at +10 mV, at +30 mV, peak tail current amplitude and tail current amplitude at 7 second).

hERG (human ether-a-go-go-related gene) potassium channel, sequence (Q12809 whole entry): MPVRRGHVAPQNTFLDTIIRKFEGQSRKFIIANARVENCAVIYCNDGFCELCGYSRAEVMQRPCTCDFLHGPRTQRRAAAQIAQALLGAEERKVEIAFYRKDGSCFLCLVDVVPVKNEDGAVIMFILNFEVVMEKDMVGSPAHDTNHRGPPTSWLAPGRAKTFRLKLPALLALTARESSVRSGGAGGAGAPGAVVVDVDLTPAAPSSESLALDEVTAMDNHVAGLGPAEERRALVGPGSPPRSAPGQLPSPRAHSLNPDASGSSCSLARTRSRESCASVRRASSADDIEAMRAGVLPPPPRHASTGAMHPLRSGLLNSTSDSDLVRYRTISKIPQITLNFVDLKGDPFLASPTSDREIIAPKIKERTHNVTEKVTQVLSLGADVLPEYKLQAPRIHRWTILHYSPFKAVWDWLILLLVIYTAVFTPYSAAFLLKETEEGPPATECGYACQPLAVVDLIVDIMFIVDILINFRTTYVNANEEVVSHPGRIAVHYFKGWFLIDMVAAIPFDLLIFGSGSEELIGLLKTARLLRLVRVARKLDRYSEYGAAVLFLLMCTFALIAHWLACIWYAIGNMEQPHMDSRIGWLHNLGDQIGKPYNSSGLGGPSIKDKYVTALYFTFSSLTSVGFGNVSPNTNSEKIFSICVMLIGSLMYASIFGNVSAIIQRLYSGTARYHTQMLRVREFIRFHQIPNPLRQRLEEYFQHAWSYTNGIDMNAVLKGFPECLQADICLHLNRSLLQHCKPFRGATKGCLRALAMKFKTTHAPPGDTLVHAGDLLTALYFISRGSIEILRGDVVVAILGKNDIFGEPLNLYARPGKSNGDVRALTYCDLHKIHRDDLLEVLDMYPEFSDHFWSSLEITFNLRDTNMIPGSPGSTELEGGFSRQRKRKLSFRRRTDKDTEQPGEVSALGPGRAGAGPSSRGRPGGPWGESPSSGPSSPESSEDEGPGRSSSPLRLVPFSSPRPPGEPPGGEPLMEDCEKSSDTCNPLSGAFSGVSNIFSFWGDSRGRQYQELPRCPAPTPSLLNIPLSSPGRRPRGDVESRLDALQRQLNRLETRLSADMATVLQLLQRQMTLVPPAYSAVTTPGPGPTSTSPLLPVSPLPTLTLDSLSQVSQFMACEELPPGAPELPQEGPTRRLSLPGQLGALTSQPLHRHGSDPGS

Compound	% change@TL7 (*@3.3 uM)
FC(F)Oc1c(Br)cc(NCc2ccc3cc(-c4nn[nH]n4)oc3c2)cc1Br [Example 4]	155* %
COc1c(F)cc(NCc2ccc3cc(-c4nn[nH]n4)oc3c2)cc1Br [Example 1]	166* %

Same assay, conditions: increase of hERG tail current amplitude at 7 second (TL7); 10 uM; hERG stably expressed in CHO cells

Compound	% change@TL7@10 uM
O=C(O)c1cc2ccc(CNc3ccc(SC(F)(F)F)c(C(F)(F)F)c3)cc2o1 [Example 91]	226%
O=C(c1ccc(NCc2ccc3cc(-c4nnn[nH]4)oc3c2)cc1)C(F)(F)F [Example 30]	228%
Fc1cc2cc(-c3nnn[nH]3)oc2cc1CNc1ccc(F)c(C(F)(F)F)c1 [Example 176]	120%
Fc1cc2cc(-c3nnn[nH]3)oc2cc1CNc1ccc(C(F)(F)F)c(C(F)(F)F)c1 [Example 158]	277%
Fc1cc2cc(-c3nnn[nH]3)oc2cc1CNc1ccc(OCC(F)(F)F)c(C(F)(F)F)c1 [Example 168]	240%
FC(F)(F)Oc1ccc(NCc2ccc3c(C(F)(F)F)c(-c4nnn[nH]4)oc3c2)cc1Br [Example 47]	131%
Fc1cc2oc(-c3nnn[nH]3)cc2cc1CNc1cc(C(F)(F)F)c(Br)c(C(F)(F)F)c1 [Example 133]	326%
Fc1cc2cc(-c3nnn[nH]3)oc2cc1CNc1ccc(Cl)c(C(F)(F)F)c1 [Example 150]	218%
CCCc1ccc(NCc2cc3cc(-c4nnn[nH]4)oc3cc2F)cc1C(F)(F)F [Example 128]	142%
Clc1ccc(NCc2cc3cc(-c4nnn[nH]4)oc3cc2Cl)cc1Cl [Example 139]	112%
O=C(O)c1cc2cc(F)c(CNc3cc(C(F)(F)F)c(Br)c(C(F)(F)F)c3)cc2o1 [Example 229]	424%
CCCc1ccc(NCc2ccc3oc(-c4nnn[nH]4)cc3c2)cc1C(F)(F)F [Example 66]	261%
CCCc1ccc(NCc2ccc3oc(C(=O)O)cc3c2)cc1C(F)(F)F [Example 122]	184%
Fc1c(CNc2ccc(OCC(F)(F)F)c(C(F)(F)F)c2)ccc2oc(-c3nnn[nH]3)cc12 [Example 142]	188%
O=C(O)c1cc2ccc(CNc3ccc(C(=O)C(F)(F)F)cc3)cc2o1 [Example 103]	112%
Clc1ccc(NCc2ccc3cc(-c4nn[nH]n4)oc3c2)cc1 [Example 33]	192%
FC(F)(F)COc1ccc(NCc2ccc3cc(-c4nn[nH]n4)oc3c2)cc1C(F)(F)F [Example 27]	261%
O=C(O)c1cc2ccc(CNc3cc(F)c(F)c(Br)c3)cc2o1 [Example 106]	90%
FC(F)(F)c1ccc(NCc2ccc3c(C(F)(F)F)c(-c4nnn[nH]4)oc3c2)cc1Cl [Example 61]	47%
CC(C)Oc1ccc(NCc2ccc3c(C(F)(F)F)c(-c4nnn[nH]4)oc3c2)cc1C(F)(F)F [Example 57]	76%
CC(C)c1ccc(NCc2cc3oc(-c4nnn[nH]4)cc3cc2Cl)cc1C(F)(F)F [Example 207]	297%
FC(F)(F)Oc1cc(Cl)cc(NCc2ccc3oc(-c4nnn[nH]4)cc3c2)c1 [Example 75]	123%
O=C(O)c1cc2ccc(CNc3ccc(C(F)(F)F)cn3)cc2o1 [Example 112]	53%
FC(F)(F)Oc1ccc(NCc2ccc3c(C(F)(F)F)c(-c4nnn[nH]4)oc3c2)cc1C(F)(F)F [Example 38]	164%
FC(F)Oc1ccc(NCc2cc3oc(-c4nnn[nH]4)cc3cc2Cl)cc1C(F)(F)F [Example 25]	269%

Compound	% change@TL7@10 uM
CCOc1ccc(NCc2cc3oc(-c4nnn[nH]4)cc3cc2Cl)cc1Cl [Example 217]	116%
Fc1ccc(NCc2cc3oc(-c4nnn[nH]4)cc3cc2F)cc1Cl [Example 215]	132%
Fc1cc(NCc2ccc3cc(-c4nn[nH]n4)oc3c2)cc(Br)c1F [Example 35]	180%
CCOc1c(Cl)cc(NCc2cc3oc(-c4nnn[nH]4)cc3cc2Cl)cc1Cl [Example 5]	146%
CCCc1ccc(NCc2ccc3oc(-c4nnn[nH]4)cc3c2)cc1OC(F)(F)F [Example 76]	120%
CCCc1ccc(NCc2ccc3oc(C(=O)O)cc3c2)cc1Cl [Example 121]	210%
O=C(O)c1cc2ccc(CNc3ccc(S(F)(F)(F)(F)F)cc3)cc2o1 [Example 99]	157%
FC(F)(F)Oc1ccc(NCc2ccc3cc(-c4nn[nH]n4)oc3c2)cc1 [Example 63]	34%
CCCc1ccc(NCc2ccc3oc(-c4nnn[nH]4)cc3c2)cc1C [Example 80]	83%
CC(C)Oc1ccc(NCc2cc3oc(-c4nnn[nH]4)cc3cc2Br)cc1C(F)(F)F [Example 173]	278%
O=C(O)c1cc2cc(CNc3ccc(Cl)c(Cl)c3)ccc2o1 [Example 123]	183%
Cc1cc2cc(NCc3ccc4cc(-c5nn[nH]n5)oc4c3)cc(Cl)c2o1 [Example 194]	205%
Fc1c(CNc2cc(C(F)(F)F)c(Br)c(C(F)(F)F)c2)ccc2oc(-c3nnn[nH]3)cc12 [Example 143]	193%
O=C(O)c1cc2cc(Cl)c(CNc3ccc(OCC(F)(F)F)c(C(F)(F)F)c3)cc2o1 [Example 224]	222%
O=C(O)c1cc2ccc(CNc3ccc(OC(F)(F)F)c(Cl)c3)cc2o1 [Example 88]	274%
CCCc1ccc(NCc2ccc3c(C(F)(F)F)c(-c4nnn[nH]4)oc3c2)cc1C(F)(F)F [Example 55]	90%
CCCc1c(C)cc(NCc2cc3oc(-c4nnn[nH]4)cc3cc2Cl)cc1Cl [Example 220]	148%
Fc1ccc(NCc2cc3oc(-c4nnn[nH]4)cc3cc2Cl)cc1OC(F)(F)F [Example 9]	78%
CCCc1cc(NCc2ccc3oc(C(=O)O)cc3c2)ccc1Cl [Example 126]	64%
O=C(O)c1cc2cc(F)c(CNc3cc(Cl)c(Cl)c(Cl)c3)cc2o1 [Example 232]	247%
CCCc1ccc(NCc2ccc3cc(-c4nnn[nH]4)oc3c2)cc1C(F)(F)F [Example 16]	521%
FC(F)(F)Oc1ccc(NCc2cc3oc(-c4nnn[nH]4)cc3cc2Cl)cc1Br [Example 36]	174%
Fc1cc(NCc2cc3oc(-c4nnn[nH]4)cc3cc2F)ccc1Cl [Example 214]	138%
Fc1cc(CNc2ccc(OCC(F)(F)F)c(C(F)(F)F)c2)cc2cc(-c3nnn[nH]3)oc12 [Example 147]	151%
FC(F)(F)Oc1ccc(NCc2ccc3oc(-c4nn[nH]n4)cc3c2)cc1Br [Example 149]	335%

Compound	% change@TL7@10 uM
CC(Nc1ccc(OC(F)(F)F)c(Cl)c1)c1ccc2oc(-c3nnn[nH]3)cc2c1 (centres unmarked) [Example 77]	118%
Fc1cc2oc(-c3nnn[nH]3)cc2cc1CNc1ccc(OCC(F)(F)F)c(C(F)(F)F)c1 [Example 127]	268%
Fc1c(Cl)cc(NCc2cc3oc(-c4nnn[nH]4)cc3cc2Cl)cc1C(F)(F)F [Example 201]	225%
FC(F)(F)Oc1ccc(NCc2ccc3cc(-c4nn[nH]n4)oc3c2)cc1C(F)(F)F [Example 23]	290%
C=C(C)c1cc(NCc2ccc3cc(-c4nn[nH]n4)oc3c2)ccc1OC(F)(F)F [Example 11]	129%
Fc1cc2cc(-c3nnn[nH]3)oc2cc1CNc1ccc(OCC(F)F)c(C(F)(F)F)c1 [Example 162]	372%
Cc1cc2cc(-c3nnn[nH]3)oc2cc1CNc1ccc(OCC(F)(F)F)c(C(F)(F)F)c1 [Example 170]	299%
CC(Nc1ccc(SC(F)(F)F)c(Cl)c1)c1ccc2oc(-c3nnn[nH]3)cc2c1 (centres unmarked) [Example 74]	124%
FC1(F)Oc2ccc(NCc3ccc4cc(-c5nn[nH]n5)oc4c3)cc2O1 [Example 40]	161%
O=C(O)c1cc2cc(F)c(CNc3ccc(OCC(F)(F)F)c(Cl)c3)cc2o1 [Example 225]	138%
FC(F)(F)c1cc(NCc2cc3oc(-c4nnn[nH]4)cc3cc2Cl)cc(C(F)(F)F)c1Br [Example 189]	350%
Fc1ccc(NCc2cc3oc(-c4nnn[nH]4)cc3cc2Cl)cc1CC(F)(F)F [Example 221]	81%
COc1cc(NCc2ccc3cc(-c4nn[nH]n4)oc3c2)cc(OC)c1OC [Example 62]	43%
Cc1cc2cc(NCc3cc4oc(-c5nnn[nH]5)cc4cc3Cl)cc(Cl)c2o1 [Example 188]	108%
Fc1cc2cc(-c3nnn[nH]3)oc2cc1CNc1ccc(C(F)(F)F)c(F)c1 [Example 203]	136%
O=C(O)c1cc2ccc(CNc3ccc(C(F)(F)F)c(C(F)(F)F)c3)cc2o1 [Example 101]	156%
Clc1cc2cc(-c3nnn[nH]3)oc2cc1CNc1cc(Cl)c(Cl)c(Cl)c1 [Example 15]	162%
Fc1cc2cc(-c3nnn[nH]3)oc2cc1CNc1ccc(Cl)c(Br)c1 [Example 180]	231%
O=C(O)c1cc2ccc(CNc3ccc(SC(F)(F)F)cc3)cc2o1 [Example 113]	53%
N#CCOc1ccc(NCc2cc3oc(-c4nnn[nH]4)cc3cc2Cl)cc1C(F)(F)F [Example 29]	258%
COc1ccc(NCc2ccc3cc(C(=O)O)oc3c2)cc1Cl [Example 115]	41%
Brc1cccc(NCc2ccc3cc(-c4nn[nH]n4)oc3c2)c1 [Example 59]	61%
Fc1cc(NCc2ccc3cc(-c4nn[nH]n4)oc3c2)ccc1OC(F)(F)F [Example 43]	148%
CCCc1cc(NCc2ccc3oc(-c4nnn[nH]4)cc3c2)ccc1Cl [Example 68]	224%
Fc1cc2cc(-c3nnn[nH]3)oc2cc1CNc1ccc(C(F)(F)F)c(Cl)c1 [Example 196]	169%
